# Assays:
# [1] = biological target: Tyrosine-protein kinase Lyn (Homo sapiens) (UniProt P07948); assay: Inhibition of human Lyn assessed as residual activity at 10 uM relative to control
# [2] = biological target: Tyrosine-protein kinase BTK (Homo sapiens) (UniProt Q06187); assay: Inhibition of human BTK assessed as residual activity at 10 uM relative to control
# [3] = biological target: Receptor-type tyrosine-protein kinase FLT3 (Homo sapiens) (UniProt P36888); assay: Inhibition of human Flt3 assessed as residual activity at 10 uM relative to control
# [4] = biological target: Inhibitor of nuclear factor kappa-B kinase subunit alpha (Homo sapiens) (UniProt O15111); assay: Inhibition of human IKKalpha assessed as residual activity at 10 uM relative to control
# Chain of Inhibitor of nuclear factor kappa-B kinase subunit alpha (Homo sapiens) (O15111 whole entry): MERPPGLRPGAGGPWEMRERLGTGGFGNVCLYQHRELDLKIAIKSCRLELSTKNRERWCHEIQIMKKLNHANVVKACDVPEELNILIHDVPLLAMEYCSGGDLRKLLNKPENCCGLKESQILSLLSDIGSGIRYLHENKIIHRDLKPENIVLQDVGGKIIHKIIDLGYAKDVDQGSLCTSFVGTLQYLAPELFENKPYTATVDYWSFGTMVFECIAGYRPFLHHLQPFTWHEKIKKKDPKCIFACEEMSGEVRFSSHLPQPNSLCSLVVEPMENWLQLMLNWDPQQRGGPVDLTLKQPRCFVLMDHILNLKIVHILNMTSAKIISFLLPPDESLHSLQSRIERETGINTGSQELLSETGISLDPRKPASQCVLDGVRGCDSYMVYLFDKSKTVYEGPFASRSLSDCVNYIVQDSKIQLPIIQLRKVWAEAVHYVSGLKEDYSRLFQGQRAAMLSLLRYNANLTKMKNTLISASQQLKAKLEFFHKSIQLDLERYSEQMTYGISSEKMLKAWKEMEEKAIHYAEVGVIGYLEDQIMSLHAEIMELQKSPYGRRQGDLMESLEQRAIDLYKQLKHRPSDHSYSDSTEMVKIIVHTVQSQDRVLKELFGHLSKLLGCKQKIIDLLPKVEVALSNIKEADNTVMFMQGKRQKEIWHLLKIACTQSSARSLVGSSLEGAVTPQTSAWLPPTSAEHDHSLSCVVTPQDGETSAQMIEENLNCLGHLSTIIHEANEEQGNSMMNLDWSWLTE
# [5] = biological target: Inhibitor of nuclear factor kappa-B kinase subunit beta (Homo sapiens) (UniProt O14920); assay: Inhibition of human IKKbeta assessed as residual activity at 1 uM relative to control
# [6] = biological target: Tyrosine-protein kinase JAK1 (Homo sapiens) (UniProt P23458); assay: Inhibition of human JAK1 assessed as residual activity at 10 uM relative to control
# [7] = biological target: Mitogen-activated protein kinase 8 (Homo sapiens) (UniProt P45983); assay: Inhibition of human JNK1alpha1 assessed as residual activity at 10 uM relative to control
# [8] = biological target: Mitogen-activated protein kinase 9 (Homo sapiens) (UniProt P45984); assay: Inhibition of human JNK2alpha2 assessed as residual activity at 10 uM relative to control
# Chain of Mitogen-activated protein kinase 9 (Homo sapiens) (P45984 whole entry, looked up): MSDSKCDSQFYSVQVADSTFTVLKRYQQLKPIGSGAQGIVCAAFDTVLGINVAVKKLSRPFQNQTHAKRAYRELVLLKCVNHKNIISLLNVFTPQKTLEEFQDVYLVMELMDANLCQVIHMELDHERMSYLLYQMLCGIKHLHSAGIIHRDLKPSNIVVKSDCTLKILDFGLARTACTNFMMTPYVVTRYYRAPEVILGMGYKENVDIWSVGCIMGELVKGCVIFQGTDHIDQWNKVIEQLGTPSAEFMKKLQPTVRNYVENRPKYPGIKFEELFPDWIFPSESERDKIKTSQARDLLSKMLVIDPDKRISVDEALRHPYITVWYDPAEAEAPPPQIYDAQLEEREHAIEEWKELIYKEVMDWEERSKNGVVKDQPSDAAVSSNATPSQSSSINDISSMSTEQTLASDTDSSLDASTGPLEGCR
# [9] = biological target: Tyrosine-protein kinase JAK3 (Homo sapiens) (UniProt P52333); assay: Inhibition of human JAK3 assessed as residual activity at 10 uM relative to control
# [10] = biological target: Tyrosine-protein kinase Lck (Homo sapiens) (UniProt P06239); assay: Inhibition of human Lck assessed as residual activity at 10 uM relative to control
# [11] = biological target: MAP kinase-activated protein kinase 2 (Homo sapiens) (UniProt P49137); assay: Inhibition of human MAPKAP-K2 assessed as residual activity at 10 uM relative to control
# Chain of MAP kinase-activated protein kinase 2 (Homo sapiens) (P49137 whole entry, looked up): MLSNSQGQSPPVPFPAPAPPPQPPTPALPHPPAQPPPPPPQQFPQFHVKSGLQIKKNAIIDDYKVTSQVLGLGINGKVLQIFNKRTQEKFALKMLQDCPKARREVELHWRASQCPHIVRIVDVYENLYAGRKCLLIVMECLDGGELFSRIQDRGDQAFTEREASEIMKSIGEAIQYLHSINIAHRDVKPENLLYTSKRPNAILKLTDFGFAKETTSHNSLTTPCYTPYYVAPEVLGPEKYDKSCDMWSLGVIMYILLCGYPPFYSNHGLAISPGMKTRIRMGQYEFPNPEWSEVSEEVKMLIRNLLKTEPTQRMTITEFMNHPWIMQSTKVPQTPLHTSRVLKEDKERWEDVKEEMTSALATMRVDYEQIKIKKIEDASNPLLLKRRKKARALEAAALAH
# [12] = biological target: Dual specificity mitogen-activated protein kinase kinase 4 (Mus musculus) (UniProt P47809); assay: Inhibition of mouse MKK4 assessed as residual activity at 10 uM relative to control
# Chain of Dual specificity mitogen-activated protein kinase kinase 4 (Mus musculus) (P47809 whole entry): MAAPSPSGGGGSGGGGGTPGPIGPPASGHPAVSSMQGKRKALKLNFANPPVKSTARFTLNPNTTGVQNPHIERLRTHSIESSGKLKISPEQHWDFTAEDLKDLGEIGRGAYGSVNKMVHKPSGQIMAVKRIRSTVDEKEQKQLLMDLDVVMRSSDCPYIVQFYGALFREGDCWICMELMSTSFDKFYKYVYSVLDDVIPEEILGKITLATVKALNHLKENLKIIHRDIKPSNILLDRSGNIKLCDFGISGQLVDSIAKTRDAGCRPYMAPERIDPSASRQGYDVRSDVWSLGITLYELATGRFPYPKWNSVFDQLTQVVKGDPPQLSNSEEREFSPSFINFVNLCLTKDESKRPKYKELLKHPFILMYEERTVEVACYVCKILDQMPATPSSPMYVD
# [13] = biological target: Dual specificity mitogen-activated protein kinase kinase 6 (Homo sapiens) (UniProt P52564); assay: Inhibition of human MKK6 assessed as residual activity at 10 uM relative to control
# Chain of Dual specificity mitogen-activated protein kinase kinase 6 (Homo sapiens) (P52564 whole entry): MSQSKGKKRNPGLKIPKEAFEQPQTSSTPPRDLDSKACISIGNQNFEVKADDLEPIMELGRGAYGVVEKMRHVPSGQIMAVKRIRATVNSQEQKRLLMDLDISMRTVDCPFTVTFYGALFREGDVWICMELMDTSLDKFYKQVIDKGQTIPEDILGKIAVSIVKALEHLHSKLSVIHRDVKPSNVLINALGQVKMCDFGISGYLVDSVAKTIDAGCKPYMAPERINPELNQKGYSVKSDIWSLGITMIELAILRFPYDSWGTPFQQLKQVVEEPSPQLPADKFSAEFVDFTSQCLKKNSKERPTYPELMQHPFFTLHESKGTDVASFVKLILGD
# [14] = biological target: Dual specificity mitogen-activated protein kinase kinase 7 (Homo sapiens) (UniProt O14733); assay: Inhibition of human MKK7beta assessed as residual activity at 10 uM relative to control
# [15] = biological target: Ribosomal protein S6 kinase alpha-5 (Homo sapiens) (UniProt O75582); assay: Inhibition of human MSK1 assessed as residual activity at 10 uM relative to control
# [16] = organism: Homo sapiens; assay: Inhibition of human PKA assessed as residual activity at 10 uM relative to control
# [17] = biological target: Rho-associated protein kinase 2 (Homo sapiens) (UniProt O75116); assay: Inhibition of human ROCK-2 assessed as residual activity at 10 uM relative to control
# Chain of Rho-associated protein kinase 2 (Homo sapiens) (O75116 whole entry, looked up): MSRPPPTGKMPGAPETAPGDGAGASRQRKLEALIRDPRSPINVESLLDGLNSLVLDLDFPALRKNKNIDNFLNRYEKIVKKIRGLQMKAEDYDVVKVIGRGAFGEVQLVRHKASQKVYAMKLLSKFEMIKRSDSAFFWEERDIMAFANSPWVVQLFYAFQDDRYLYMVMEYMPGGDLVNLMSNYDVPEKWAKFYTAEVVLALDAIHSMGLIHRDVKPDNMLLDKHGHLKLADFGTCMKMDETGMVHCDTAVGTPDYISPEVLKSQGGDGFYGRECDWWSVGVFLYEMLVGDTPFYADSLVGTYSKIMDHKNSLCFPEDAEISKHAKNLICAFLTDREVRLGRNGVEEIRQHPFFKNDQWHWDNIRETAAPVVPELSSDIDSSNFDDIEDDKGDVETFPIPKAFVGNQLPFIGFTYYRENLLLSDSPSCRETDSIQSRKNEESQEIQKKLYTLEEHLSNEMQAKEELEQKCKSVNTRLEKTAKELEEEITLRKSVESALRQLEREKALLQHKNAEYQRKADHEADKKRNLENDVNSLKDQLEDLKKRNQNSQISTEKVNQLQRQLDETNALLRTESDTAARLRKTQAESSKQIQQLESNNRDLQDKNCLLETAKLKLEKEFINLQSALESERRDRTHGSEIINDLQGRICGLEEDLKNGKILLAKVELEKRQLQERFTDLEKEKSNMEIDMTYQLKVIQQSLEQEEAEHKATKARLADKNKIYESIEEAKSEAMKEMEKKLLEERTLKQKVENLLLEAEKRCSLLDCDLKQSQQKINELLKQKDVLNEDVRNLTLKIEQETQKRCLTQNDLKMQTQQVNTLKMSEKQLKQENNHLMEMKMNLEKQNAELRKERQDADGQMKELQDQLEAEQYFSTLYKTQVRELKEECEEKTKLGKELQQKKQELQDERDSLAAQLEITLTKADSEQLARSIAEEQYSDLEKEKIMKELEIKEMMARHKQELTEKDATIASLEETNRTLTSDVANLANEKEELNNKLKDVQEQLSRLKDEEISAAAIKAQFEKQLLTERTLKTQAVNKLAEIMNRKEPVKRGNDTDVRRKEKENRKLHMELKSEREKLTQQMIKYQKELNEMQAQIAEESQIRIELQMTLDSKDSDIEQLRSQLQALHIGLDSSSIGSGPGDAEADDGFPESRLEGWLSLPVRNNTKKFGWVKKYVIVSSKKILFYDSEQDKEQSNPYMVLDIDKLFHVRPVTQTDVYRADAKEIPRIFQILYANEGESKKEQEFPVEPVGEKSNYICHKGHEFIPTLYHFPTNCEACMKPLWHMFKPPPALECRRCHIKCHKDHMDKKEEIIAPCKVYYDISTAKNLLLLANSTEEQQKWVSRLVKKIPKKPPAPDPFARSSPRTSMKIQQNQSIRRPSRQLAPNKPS
# [18] = biological target: Mitogen-activated protein kinase 14 (Homo sapiens) (UniProt Q16539); assay: Inhibition of human SAPK2alpha assessed as residual activity at 10 uM relative to control
# Chain of Mitogen-activated protein kinase 14 (Homo sapiens) (Q16539 whole entry): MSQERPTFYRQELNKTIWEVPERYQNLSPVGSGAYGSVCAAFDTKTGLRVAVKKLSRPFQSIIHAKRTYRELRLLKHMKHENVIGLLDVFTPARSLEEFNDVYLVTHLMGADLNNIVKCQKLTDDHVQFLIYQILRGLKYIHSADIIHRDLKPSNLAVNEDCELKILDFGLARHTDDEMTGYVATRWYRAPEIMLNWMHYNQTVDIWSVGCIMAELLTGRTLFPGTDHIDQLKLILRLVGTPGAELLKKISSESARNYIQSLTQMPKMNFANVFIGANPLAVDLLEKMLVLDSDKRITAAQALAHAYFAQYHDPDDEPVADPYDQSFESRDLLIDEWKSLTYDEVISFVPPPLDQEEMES
# [19] = biological target: Mitogen-activated protein kinase 11 (Homo sapiens) (UniProt Q15759); assay: Inhibition of human SAPK2beta assessed as residual activity at 10 uM relative to control
# Chain of Mitogen-activated protein kinase 11 (Homo sapiens) (Q15759 whole entry): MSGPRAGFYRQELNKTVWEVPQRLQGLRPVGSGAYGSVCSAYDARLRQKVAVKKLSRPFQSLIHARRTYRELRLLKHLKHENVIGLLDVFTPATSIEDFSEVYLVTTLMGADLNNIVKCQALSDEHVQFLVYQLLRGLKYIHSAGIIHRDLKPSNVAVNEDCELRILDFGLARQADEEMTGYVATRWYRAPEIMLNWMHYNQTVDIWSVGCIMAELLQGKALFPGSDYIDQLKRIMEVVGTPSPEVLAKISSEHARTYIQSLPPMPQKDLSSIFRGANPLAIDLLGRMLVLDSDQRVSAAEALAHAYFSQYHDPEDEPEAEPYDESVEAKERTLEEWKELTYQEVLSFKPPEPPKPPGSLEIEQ
# [20] = biological target: Mitogen-activated protein kinase 12 (Homo sapiens) (UniProt P53778); assay: Inhibition of human SAPK3 assessed as residual activity at 10 uM relative to control
# [21] = biological target: Mitogen-activated protein kinase 13 (Homo sapiens) (UniProt O15264); assay: Inhibition of human SAPK4 assessed as residual activity at 10 uM relative to control
# Chain of Mitogen-activated protein kinase 13 (Homo sapiens) (O15264 whole entry): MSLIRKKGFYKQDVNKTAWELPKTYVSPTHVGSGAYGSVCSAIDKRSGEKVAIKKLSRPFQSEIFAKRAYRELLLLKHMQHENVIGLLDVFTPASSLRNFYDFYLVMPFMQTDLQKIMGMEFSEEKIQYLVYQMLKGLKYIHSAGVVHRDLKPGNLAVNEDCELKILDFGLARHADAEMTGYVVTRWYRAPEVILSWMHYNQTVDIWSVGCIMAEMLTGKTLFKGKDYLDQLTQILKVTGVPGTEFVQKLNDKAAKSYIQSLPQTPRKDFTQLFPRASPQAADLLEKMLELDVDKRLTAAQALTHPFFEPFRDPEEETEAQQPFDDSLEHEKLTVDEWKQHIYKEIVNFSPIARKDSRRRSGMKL
# [22] = biological target: Non-receptor tyrosine-protein kinase TYK2 (Homo sapiens) (UniProt P29597); assay: Inhibition of human TYK2 assessed as residual activity at 10 uM relative to control
# [23] = biological target: T1, Receptor-type tyrosine-protein kinase FLT3 (Homo sapiens, UniProt P36888)
# T1 sequence (P36888 whole entry): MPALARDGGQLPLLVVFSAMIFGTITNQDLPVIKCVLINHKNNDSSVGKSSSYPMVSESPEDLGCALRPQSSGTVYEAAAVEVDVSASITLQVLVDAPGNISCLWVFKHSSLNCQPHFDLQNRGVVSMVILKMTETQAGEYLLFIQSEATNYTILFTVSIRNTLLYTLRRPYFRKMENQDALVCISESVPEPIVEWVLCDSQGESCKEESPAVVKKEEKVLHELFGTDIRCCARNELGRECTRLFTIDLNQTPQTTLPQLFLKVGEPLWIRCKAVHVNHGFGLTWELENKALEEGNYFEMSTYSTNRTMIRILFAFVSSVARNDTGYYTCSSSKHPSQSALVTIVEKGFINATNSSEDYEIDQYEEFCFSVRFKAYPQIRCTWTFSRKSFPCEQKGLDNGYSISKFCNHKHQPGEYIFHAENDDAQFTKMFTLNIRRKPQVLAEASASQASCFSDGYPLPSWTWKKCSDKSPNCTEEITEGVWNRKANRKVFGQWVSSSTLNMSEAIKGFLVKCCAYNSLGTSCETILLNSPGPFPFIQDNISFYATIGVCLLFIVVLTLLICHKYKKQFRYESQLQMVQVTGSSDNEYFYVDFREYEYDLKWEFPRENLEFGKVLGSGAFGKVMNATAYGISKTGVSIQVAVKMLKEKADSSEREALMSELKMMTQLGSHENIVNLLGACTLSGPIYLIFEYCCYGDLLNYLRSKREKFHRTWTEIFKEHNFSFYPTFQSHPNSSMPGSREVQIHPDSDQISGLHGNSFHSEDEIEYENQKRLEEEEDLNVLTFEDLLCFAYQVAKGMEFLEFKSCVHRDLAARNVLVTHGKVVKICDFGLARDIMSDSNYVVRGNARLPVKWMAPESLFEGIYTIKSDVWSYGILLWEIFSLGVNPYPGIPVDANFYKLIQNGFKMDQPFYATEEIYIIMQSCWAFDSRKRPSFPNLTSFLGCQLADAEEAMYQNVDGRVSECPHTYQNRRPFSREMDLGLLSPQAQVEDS
# Description: Inhibition of FLT3 kinase (unknown origin)
# [24] = tested on: RAW264.7; assay: cells; details: Mus musculus
# Description: (§1) Antiinflammatory activity against mouse RAW264.7 cells assessed as reduction of LPS-induced TNF-alpha production
# [25] = tested on: RAW264.7; assay: cells; details: Mus musculus; remark: listed apart in the source
# Description: Antiinflammatory activity against mouse RAW264.7 cells assessed as reduction of LPS-induced NO production
# [26] = biological target: T2, Inhibitor of nuclear factor kappa-B kinase subunit beta (Homo sapiens, UniProt O14920)
# T2 sequence (O14920 whole entry): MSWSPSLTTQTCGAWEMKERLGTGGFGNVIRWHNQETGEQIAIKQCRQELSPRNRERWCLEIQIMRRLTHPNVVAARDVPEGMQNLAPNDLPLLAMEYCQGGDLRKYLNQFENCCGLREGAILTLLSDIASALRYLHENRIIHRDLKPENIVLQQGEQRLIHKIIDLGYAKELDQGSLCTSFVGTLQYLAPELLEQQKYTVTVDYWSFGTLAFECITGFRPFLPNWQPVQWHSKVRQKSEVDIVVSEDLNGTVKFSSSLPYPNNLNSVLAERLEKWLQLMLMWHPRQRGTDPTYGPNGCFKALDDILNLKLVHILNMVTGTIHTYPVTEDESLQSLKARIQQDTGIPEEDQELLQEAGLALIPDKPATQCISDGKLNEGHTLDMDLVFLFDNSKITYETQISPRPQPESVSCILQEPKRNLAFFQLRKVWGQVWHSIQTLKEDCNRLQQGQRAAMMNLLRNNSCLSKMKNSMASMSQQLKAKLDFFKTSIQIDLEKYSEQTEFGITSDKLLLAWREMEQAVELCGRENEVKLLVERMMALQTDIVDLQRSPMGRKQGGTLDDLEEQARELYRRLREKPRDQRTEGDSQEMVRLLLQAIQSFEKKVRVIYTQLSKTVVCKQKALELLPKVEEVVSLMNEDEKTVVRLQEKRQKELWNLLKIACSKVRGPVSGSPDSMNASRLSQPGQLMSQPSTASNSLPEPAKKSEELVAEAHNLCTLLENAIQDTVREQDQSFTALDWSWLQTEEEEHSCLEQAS
# Description: Inhibition of IKKbeta kinase (unknown origin) by Lance ULight system
# [27] = biological target: T2, Inhibitor of nuclear factor kappa-B kinase subunit beta; remark: listed apart in the source
# Description: (§2) Inhibition of IKKbeta kinase (unknown origin) by Radioisotope system
# [28] = tested on: RAW264.7
# Description: as §1
# [29] = biological target: T2, Inhibitor of nuclear factor kappa-B kinase subunit beta; remark: listed apart in the source
# Description: as §2
smiles,measurement,setting,value
CC1=CC(=O)N(Nc2nc(-c3cccs3)nc3scc(-c4cccc(OCCN5CCCCC5)c4)c23)C1=O,Activity,[1],81%
same,Activity,[2],100%
same,Activity,[3],4%
same,Activity,[4],98%
same,Activity,[5],84%
same,Activity,[6],111%
same,Activity,[7],93%
same,Activity,[8],117%
same,Activity,[9],112%
same,Activity,[10],74%
same,Activity,[11],94%
same,Activity,[12],112%
same,Activity,[13],96%
same,Activity,[14],108%
same,Activity,[15],102%
same,Activity,[16],126%
same,Activity,[17],96%
same,Activity,[18],96%
same,Activity,[19],103%
same,Activity,[20],99%
same,Activity,[21],100%
same,Activity,[22],87%
same,IC50,[23],133 nM
same,IC50,[24],2920 nM
same,IC50,[25],2150 nM
CC1=CC(=O)N(Nc2nc(-c3cccs3)nc3scc(-c4ccccc4)c23)C1=O,Activity,[1],92%
same,Activity,[2],76%
same,Activity,[3],8%
same,Activity,[4],119%
same,Activity,[5],116%
same,Activity,[6],103%
same,Activity,[7],87%
same,Activity,[8],94%
same,Activity,[9],121%
same,Activity,[10],86%
same,Activity,[11],102%
same,Activity,[12],113%
same,Activity,[13],99%
same,Activity,[14],122%
same,Activity,[15],96%
same,Activity,[16],125%
same,Activity,[17],99%
same,Activity,[18],92%
same,Activity,[19],98%
same,Activity,[20],109%
same,Activity,[21],90%
same,Activity,[22],86%
same,IC50,[23],208 nM
same,IC50,[26],> 50000 nM
same,IC50,[27],Not Active
same,IC50,[24],1290 nM
same,IC50,[25],750 nM
CC1=CC(=O)N(Nc2nc(-c3cccs3)nc3sccc23)C1=O,IC50,[26],> 50000 nM
same,IC50,[27],Not Active
same,IC50,[24],8950 nM
same,IC50,[25],6980 nM
COc1cccc(-c2nc(NN3C(=O)C=C(C)C3=O)c3c(-c4cccs4)csc3n2)c1,IC50,[24],1240 nM
same,IC50,[25],3470 nM
COc1cccc2nc(-c3cccs3)nc(NN3C(=O)C=C(C)C3=O)c12 [AS-602868],IC50,[24],3320 nM
same,IC50,[25],4410 nM
CC1=CC(=O)N(Nc2ncnc3scc(-c4cccs4)c23)C1=O,IC50,[24],> 10000 nM
same,IC50,[25],2490 nM
CC1=CC(=O)N(Nc2nc(-c3cccs3)nc3scc(-c4cccs4)c23)C1=O,IC50,[24],710 nM
same,IC50,[25],2190 nM
O=C1c2ccccc2C(=O)N1Nc1ncnc2scc(-c3cccs3)c12,IC50,[28],Not Active
same,IC50,[25],> 10000 nM
CC1=CC(=O)N(Nc2nc(C3CC3)nc3scc(-c4cccs4)c23)C1=O,IC50,[24],4350 nM
same,IC50,[25],3120 nM
CC1=CC(=O)N(Nc2nc(-c3cccs3)nc3scc(-c4ccc(OCCN5CCCCC5)cc4)c23)C1=O.Cl,IC50,[23],85 nM
same,IC50,[27],Not Active
same,IC50,[24],2140 nM
same,IC50,[25],1680 nM
CC1=CC(=O)N(Nc2nc(-c3cccs3)nc3scc(-c4cccc(OCCN5CCOCC5)c4)c23)C1=O,IC50,[23],540 nM
same,IC50,[29],> 50000 nM
same,IC50,[24],2380 nM
same,IC50,[25],3260 nM
CC1=CC(=O)N(Nc2nc(-c3cccs3)nc3scc(-c4cccc(O)c4)c23)C1=O,IC50,[23],488 nM
same,IC50,[27],Not Active
same,IC50,[24],2670 nM
same,IC50,[25],1230 nM
CC1=CC(=O)N(Nc2nc(-c3cccs3)nc3scc(-c4ccc(O)cc4)c23)C1=O,IC50,[23],750 nM
same,IC50,[27],Not Active
same,IC50,[24],1320 nM
same,IC50,[25],820 nM
COc1ccc(-c2nc(NN3C(=O)C=C(C)C3=O)c3c(-c4cccs4)csc3n2)cc1,IC50,[24],1390 nM
same,IC50,[25],2790 nM
CC1=C(C)C(=O)N(Nc2ncnc3scc(-c4cccs4)c23)C1=O,IC50,[28],Not Active
same,IC50,[25],> 10000 nM
CC1=CC(=O)N(Nc2nc(-c3ccccc3)nc3scc(-c4cccs4)c23)C1=O,IC50,[24],1130 nM
same,IC50,[25],3130 nM
CC1=CC(=O)N(Nc2nc(-c3cccs3)nc3scc(-c4cccc(OCCN(C)C)c4)c23)C1=O,IC50,[26],> 50000 nM
same,IC50,[29],> 50000 nM
same,IC50,[24],9880 nM
same,IC50,[25],7540 nM
CCOC(=O)Cc1csc2nc(-c3cccs3)nc(NN3C(=O)C=C(C)C3=O)c12,IC50,[23],673 nM
same,IC50,[26],> 50000 nM
same,IC50,[27],Not Active
same,IC50,[24],5230 nM
same,IC50,[25],5070 nM
CC1=CC(=O)N(Nc2nc(-c3ccco3)nc3scc(-c4cccs4)c23)C1=O,IC50,[24],3960 nM
same,IC50,[25],5250 nM
O=C1c2ccncc2C(=O)N1Nc1ncnc2scc(-c3cccs3)c12,IC50,[28],Not Active
same,IC50,[25],> 10000 nM
O=C1C=CC(=O)N1Nc1ncnc2scc(-c3cccs3)c12,IC50,[28],Not Active
same,IC50,[25],> 10000 nM
CC1=CC(=O)N(Nc2nc(-c3ccncc3)nc3scc(-c4cccs4)c23)C1=O,IC50,[24],> 10000 nM
same,IC50,[25],2110 nM

# From ChEMBL document CHEMBL3286226, “Discovery of thienopyrimidine-based FLT3 inhibitors from the structural modification of known IKKβ inhibitors” (Bioorg Med Chem Lett, 2014)
